In article PMC9880438, “Pharmacokinetics of active compounds of a Terminalia chebula Retz. Ethanolic extract after oral administration rats using UPLC-MS/MS” (Frontiers in Pharmacology, 2023):

Legend:
HepG2 cells = system: HepG2 cells; parameters: method as in Achari et al., 2011; settings: 50 μM; ref Achari et al., 2011; cited from earlier work
[1] = Stability of QC samples of the analytes in rat plasma under storage conditions; type: physicochemical; settings: n = 6
Method: Preparation of quality control (QC) samples with three concentrations (low, medium, and high) of 16, 160, and 3,200 ng/ml for ellagic acid; 1.6, 16, 320 ng/ml for protocatechuic acid, ethyl gallate and 1,2,3,4,6-O-pentagalloylglucose; 40, 400 and 8,000 ng/ml for chebulic acid, gallic acid, corilagin and chebulinic acid and 160, 1,600, 32000 ng/ml for chebulagic acid. Both QC samples and stock solutions were stored in a refrigerator at 4°C.
Under variable treatment conditions: stored for 12 h at auto-sampler, for 4 hours at room temperature, under three freeze-thaw cycles, and kept at −80°C for 7 days, quality control samples were analyzed to assess the stability of the nine analytes in plasma.

[2] = Pharmacokinetic study in rats after oral administration of TC extracts (UPLC-MS/MS of plasma); settings: male, Sprague-Dawley, rat, plasma, po, 10 g/kg
Method: UPLC-MS/MS system was used for analysis and monitoring, which consisted primarily of an Agilent 1290 UPLC system (Agilent Technologies, Germany) and an Agilent 6,470 series triple quad (TQ) mass spectrometer (MS) (Agilent Technologies, Singapore) equipped with an electrospray ionization source.
Separation was carried out on an ACQUITY UPLC® HSS T3 column (2.1 × 100 mm, 1.8 μm), and temperature in the column was kept at 20°C. In the mobile phase, 0.1% formic acid in water and acetonitrile were used as solvents A and B, respectively. Gradient elution was performed as follows: 1%–5% B at 0–3 min; 5%–30% B at 3–4 min; 30%–40% B at 4–8 min; 40%–100% B at 8–9 min; 100%–100% B at 9–12 min. The flow rate was set at 0.3 ml/min and the injection volume was 10 μL.
Multiple reaction monitoring (MRM) was used for quantitative analysis in negative (−) ionization mode. The mass spectrometric parameters were set as follows: drying gas (N2) temperature was 300°C; gas (N2) flow rate was 7 L/min; atomizer pressure was 35 psi; sheath gas flow was 11 L/min and capillary voltage was 3800 V. The specific mass spectrometric parameters of the precursor ion, product ion, fragmentor, collision energy, and ion modes of the nine compounds and IS are shown in Table 1.
The plasma sample (100 μl) was sequentially spiked with 20 μl IS solutions (caffeic acid, 1,000 ng/ml); 20 μL methanol, and 10 μl formic acid, then vortex-mixed for 1 min. The mixture was precipitated protein with 1,000 μl methanol by vortex mixing for 3 min. The supernatant was collected into a 1.5 ml clean centrifuge tube after centrifugation at for 10 min 14,000 rpm, and evaporated under a nitrogen stream until dry. After that, the residue was redissolved in 100 μl methanol, vortex-mixed for 3 min, then centrifuged for 10 min at 14,000 rpm. 10 μl analyte was injected into the UPLC-MS/MS system.
In this study, six of male rats were used, given free access to water, and fasted for 12 h before the experimental period. The TC extracts were dissolved in 0.5% CMC-Na aqueous solution as a suspension at a concentration of 1 g/ml. A dose of 10 g/kg of the suspension was administered to the rats orally, the blood samples of approximately 300 μL were drawn from the fundus venous plexus of rats pre- and post-oral administration at 0.00, 0.08, 0.17, 0.25, 0.50, 0.75, 1, 2, 4, 6, 8, 10, 12, 24, 36, 48, 60, 72, 84, 96, 120, 144 and 168 h, respectively. For analysis, the plasma supernatants collected from the centrifuged plasma were frozen at −80°C after centrifugation for 10 min at 6,000 rpm.
Data were expressed as mean ± standard deviation (mean ± SD). MassHunter Workstation software (version B.09.00) was quantitatively used to calculate the plasma concentrations of nine analytes. To evaluate the specific pharmacokinetic parameters, DAS Software (DAS 3.0, Medical College of Wannan, China) was used to process the pharmacokinetic results.

Measured concentration after storage ([1]; spiked 160 ng/mL, autosampler for 12 h): 145.5 ± 16.4 ng/mL | Measured concentration after storage ([1]; spiked 160 ng/mL, room temperature for 4 h): 160.8 ± 6.2 ng/mL | Measured concentration after storage ([1]; spiked 160 ng/mL, three freeze-thaw cycles): 167.9 ± 7.8 ng/mL | Measured concentration after storage ([1]; spiked 160 ng/mL, −80°C for 7 days): 168.0 ± 4.2 ng/mL | Measured concentration after storage ([1]; spiked 1,600 ng/mL, autosampler for 12 h): 1,448.9 ± 70.5 ng/mL | Measured concentration after storage ([1]; spiked 1,600 ng/mL, room temperature for 4 h): 1,465.3 ± 158.2 ng/mL | Measured concentration after storage ([1]; spiked 1,600 ng/mL, three freeze-thaw cycles): 1,391.9 ± 61.5 ng/mL | Measured concentration after storage ([1]; spiked 1,600 ng/mL, −80°C for 7 days): 1,512.8 ± 65.1 ng/mL | Measured concentration after storage ([1]; spiked 32000 ng/mL, autosampler for 12 h): 34277.3 ± 2,721.2 ng/mL | Measured concentration after storage ([1]; spiked 32000 ng/mL, room temperature for 4 h): 31970.0 ± 1,256.3 ng/mL | Measured concentration after storage ([1]; spiked 32000 ng/mL, three freeze-thaw cycles): 33770.8 ± 3,365.5 ng/mL | Measured concentration after storage ([1]; spiked 32000 ng/mL, −80°C for 7 days): 31615.2 ± 953.8 ng/mL | AUC [2]: 231 ± 64.6 µg·h/mL | AUC(0-inf) [2]: 234 ± 65.7 µg·h/mL | Cmax [2]: 4980 ng/mL | MRT [2]: 49.8 ± 4.87 h | MRT inf [2]: 51.8 ± 5.3 h | Tmax [2]: 5.67 ± 3.67 h | half-life [2]: 20 ± 2.51 h
SMILES: O=C(O)C[C@@H]1C(=O)O[C@H]2[C@@H]3OC(=O)c4cc(O)c(O)c(O)c4-c4c(cc(O)c(O)c4O)C(=O)OC[C@H]2O[C@@H](OC(=O)c2cc(O)c(O)c(O)c2)[C@@H]3OC(=O)c2cc(O)c(O)c3c2[C@H]1[C@H](O)C(=O)O3 [Chebulagic acid, chebulagic acid]
Sensitivity of HepG2 cells towards Dox induced cytotoxicity (HepG2 cells): increased the sensitivity
